# Source: doi:10.1101/2021.10.22.465361v1 (biorxiv, 2021)
# Target: T1, FABP7 (Brain fatty acid binding protein) (Homo sapiens, UniProt O15540)
# T1 sequence (O15540 2-132): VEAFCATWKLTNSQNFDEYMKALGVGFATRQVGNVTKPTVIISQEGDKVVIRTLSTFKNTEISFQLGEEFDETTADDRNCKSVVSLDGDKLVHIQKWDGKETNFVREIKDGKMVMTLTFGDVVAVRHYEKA
# Assay: microscale thermophoresis
row,Kd [nM],Compound
1,~500,"CC/C=C\C/C=C\C/C=C\C/C=C\C/C=C\C/C=C\CCC(=O)O [DHA, docosahexaenoic acid]"
2,~500,"CCCCCCCCCCCCCCCCCC(=O)O [SA, stearic acid]"
3,~500,"CCCCCCCC/C=C\CCCCCCCC(=O)O [OA, oleic acid]"
